Assays:
[1] = system: skin of white guinea pigs; assay: Inhibition of erythema formation (UV-A/UV-B irradiation); type: in vivo; details: Cavia porcellus, light or radiation study, topical; 5 wt. % in ethanol; UV-A/UV-B 40 J/cm^2; determined after 1 day and 2 days; read-out: Erythema inhibition rate
Description: Inhibition of erythema formation
The hair of white guinea pigs (8 weeks old, female) hair was removed by shaving, and an ethanol solution containing a test substance (5 wt. %) was applied to the shaved part of each animal. A mixture of UV-A/UV-B (40 J/cm^2, measured at 365 nm using a UV-radiometer UVR-305/365-D, Torex Co.) was irradiated onto the back of each guinea pig using a solar simulator Model 1600 (Solar Light Co.). After 1 day and 2 days of irradiation, the erythema formation was visually determined by the standards of the Japanese Dermatological Association to obtain erythema inhibition ratios.

[2] = system: sunburn cells in skin of ICR/HR mice; assay: Inhibition of sunburn cell formation (UV-B irradiation); type: in vivo; details: Mus musculus, light or radiation study, topical; 1 wt. % in ethanol; UV-B 100 mJ/cm^2; 24 hours later; read-out: Inhibition ratio regarding sunburn cell formation
Description: Inhibition of sunburn cell formation
Ethanol solution of a test substance (1 wt. %) was applied onto the skin of ICR/HR mice. UV-B (100 mJ/cm^2) was irradiated onto the skin (health lamp SE20/SLE, Toshiba). Twenty-four hours later, the skin was biopsied and stained using hematoxylin & eosin, after which the number of sunburn cells were counted under microscope.

skin of ICR/HR mice = assay: Inhibition of wrinkle formation in the skin of mice (UV-B, 16 weeks); type: in vivo, ICR/HR mouse; details: Mus musculus, topical, 2688 h; 1 wt. % in ethanol; 1 MED UV-B five times per week over sixteen weeks
Description: Inhibition of wrinkle formation in the skin of mice
To the back of each ICR/HR mouse (female, 6 weeks old), an ethanol solution containing a test substance (1 wt. %) was applied. One (1) MED of UV-B was irradiated thereto using a health lamp SL20-SLE (Toshiba). Irradiation was repeated five times per week over sixteen weeks. Wrinkle formation was visually scored using the following five rankings.
1: Mild and questionable wrinkles are observed
2: Mild but clear and definite wrinkles are observed
3: Moderate wrinkles are observed
4: Severe wrinkles are observed
Using the above rankings, wrinkle formations were scored and the inhibition ratios were determined by the division by the blank score.

Row | Compound | inhibition in vivo at 5 % [1] | inhibition in vivo at 1 % [2] | inhibition in vivo at 1 % (skin of ICR/HR mice)
1 | COCC(O)CN(C)c1ccc(OC)cc1 (stereo not drawn) [Compound (1), N-(2-hydroxy-3-methoxypropyl)-N-methyl-p-anisidine] | 68% | 79% | 47%
2 | CCCCN(CC(O)COC)c1ccc(OC)cc1 (stereo not drawn) [Compound (2), N-n-butyl-N-(2-hydroxy-3-methoxypropyl)-p-anisidine] | 42% | 53% | 38%
3 | CCCCCCCCN(CC(O)COC)c1ccc(OC)cc1 (stereo not drawn) [Compound (3), N-(2-hydroxy-3-methoxypropyl)-N-n-octyl-p-anisidine] | 71% | 86% | 58%
4 | COCC(O)CN(CC(O)COC)c1ccc(C)cc1 (stereo not drawn) [Compound (4), N,N-bis(2-hydroxy-3-methoxypropyl)-p-toluidine] | 69% | 81% | 51%
5 | CCCCN(CC(O)COC)c1ccc(C)cc1 (stereo not drawn) [Compound (5), N-n-butyl-N-(2-hydroxy-3-methoxypropyl)-p-toluidine] | 65% | 65% | 43%
6 | CCCCN(CC(O)COC)c1ccccc1 (stereo not drawn) [Compound (6), N-n-butyl-N-(2-hydroxy-3-methoxypropyl)aniline] | 37% | 46% | 36%
7 | CCCCN(CC(O)COC)c1ccc(C)c(C)c1 (stereo not drawn) [Compound (32), N-n-butyl-N-(2-hydroxy-3-methoxypropyl)-3,4-xylidine] | 53% | 61% | 43%
8 | Cc1ccc(N(C)CC(O)CO)cc1 (stereo not drawn) [Compound (33), N-(2,3-dihydroxypropyl)-N-methyl-p-toluidine] | 43% | 54% | 35%
9 | CCCCN(CC(O)CO)c1ccc(C)c(C)c1 (stereo not drawn) [Compound (34), N-n-butyl-N-(2,3-dihydroxypropyl)-3,4-xylidine] | 65% | 64% | 43%
10 | CCCCCCCCN(CC(O)CO)c1ccc(OC)cc1 (stereo not drawn) [Compound (35), N-(2,3-dihydroxypropyl)-N-octyl-p-anisidine] | 78% | 81% | 42%
